Patent publication US10407409B2, “6-(5-hydroxy-1H-pyrazol-1-yl)nicotinamide inhibitors of PHD” (Takeda Pharmaceutical Company Limited, priority 2013, dated 2019)
Structures can show the parent of a compound that is named as a salt.

What follows are compounds tested against PHD2 enzyme (residues 181-417) (Homo sapiens (Human), UniProt Q9GZT9) (assay: Inhibition of PHD enzyme (LC/MS peptide hydroxylation assay)). Settings: PHD2 (residues 181-417) 5 nM, 60 min pre-incubation; -log(IC50), IC50 molar.
Assay type: biochemical
Description: Example A Inhibition of PHD Enzyme
The IC50 values for the PHD2 enzyme (residues 181-417) were determined by mixing increasing amounts of inhibitor with a fixed amount of enzyme (5 nM, final concentration) and Biotin labeled peptide (Biotin-Asp-Leu-Glu-Met-Leu-Ala-Pro-Tyr-Ile-Pro-Met-Asp-Asp-Asp-Phe-Gln-Leu, 1 uM final concentration) and 2-Oxyglutarate (2 uM final concentration) in 50 mM HEPES, 50 mM KCl, 0.5 mM TCEP, 2 uM FeCl2, 0.1 mg/ml BSA, at pH 7.3. The reaction was conducted by pre-incubating the enzyme in the presence of inhibitor for 60 min at room temperature. The activity of the free enzyme was measured by adding the peptide, the 2-Oxoglutarate (see above for final concentrations), and Ascorbic Acid (1 mM final concentration). The enzymatic activity was quenched after 60 min by adding an excess of a tight binding inhibitor to the assay mixture. The amount of product released was measured by using a LC/MS system (Agilent HPLC with Applied Biosystems API3000 Mass Spectrometer). Data were analyzed using the classical isotherm equation for the determination of IC50 values and are pIC50, i.e., −log(IC50), where IC50 is molar concentration and are reported as pIC50, i.e., −log(IC50), where IC50 is molar concentration.

PHD2 enzyme (residues 181-417), sequence (Q9GZT9 181-417): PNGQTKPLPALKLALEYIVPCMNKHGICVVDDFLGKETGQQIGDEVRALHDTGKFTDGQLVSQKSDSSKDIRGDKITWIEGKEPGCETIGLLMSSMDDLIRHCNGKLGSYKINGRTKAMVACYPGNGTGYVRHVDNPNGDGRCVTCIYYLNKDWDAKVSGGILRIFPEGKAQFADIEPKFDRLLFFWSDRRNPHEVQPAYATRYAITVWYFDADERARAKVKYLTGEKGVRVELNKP

| SMILES | PHD Inhibition (pIC50) |
| --- | --- |
| COc1cc(-c2cnn(-c3ccc(C(=O)NC(CO)C4CCOC4)cn3)c2O)ccn1 (centres unmarked) [Example 27, N-(2-hydroxy-1-(tetrahydrofuran-3-yl)ethyl)-6-(5-hydroxy-4-(2-methoxypyridin-4-yl)-1H-pyrazol-1-yl)nicotinamide] | 6.99 |
| COc1cc(-c2cnn(-c3ccc(C(=O)NCCCCO)cn3)c2O)ccn1 [Example 28, 6-(5-hydroxy-4-(2-methoxypyridin-4-yl)-1H-pyrazol-1-yl)-N-(4-hydroxybutyl)nicotinamide] | 7.01 |
| CCN1CCC(NC(=O)c2ccc(-n3ncc(-c4ccnc(OC)c4)c3O)nc2)CC1 [Example 37, N-(1-ethylpiperidin-4-yl)-6-(5-hydroxy-4-(2-methoxypyridin-4-yl)-1H-pyrazol-1-yl)nicotinamide] | 7.4 |
| COc1cc(-c2cnn(-c3ccc(C(=O)NCCCN(C)C)cn3)c2O)ccn1 [Example 44, N-(3-(dimethylamino)propyl)-6-(5-hydroxy-4-(2-methoxypyridin-4-yl)-1H-pyrazol-1-yl)nicotinamide] | 7.3 |
| N#Cc1ccc(-c2cnn(-c3ccc(C(=O)N[C@H]4CCNC4)cn3)c2O)cc1 [Example 73, (S)-6-(4-(4-cyanophenyl)-5-hydroxy-1H-pyrazol-1-yl)-N-(pyrrolidin-3-yl)nicotinamide] | 7.2 |
| CC1CCCCN1CCCNC(=O)c1ccc(-n2ncc(-c3ccc(C#N)cc3)c2O)nc1 (centres unmarked) [Example 90, 6-(4-(4-cyanophenyl)-5-hydroxy-1H-pyrazol-1-yl)-N-(3-(2-methylpiperidin-1-yl)propyl)nicotinamide] | 6.95 |
| CN1CCC(CNC(=O)c2ccc(-n3ncc(-c4ccc(C#N)cc4)c3O)nc2)C1 (centres unmarked) [Example 92, 6-(4-(4-cyanophenyl)-5-hydroxy-1H-pyrazol-1-yl)-N-((1-methylpyrrolidin-3-yl)methyl)nicotinamide] | 6.87 |
| COCCC1(NC(=O)c2ccc(-n3ncc(-c4ccc(C#N)cc4F)c3O)nc2)CC1 [Example 210, 6-(4-(4-cyano-2-fluorophenyl)-5-hydroxy-1H-pyrazol-1-yl)-N-(1-(2-methoxyethyl)cyclopropyl)nicotinamide] | 8.3 |
| CN(C)c1cc(-c2cnn(-c3ccc(C(=O)NCC4CCOCC4)cn3)c2O)ccn1 [Example 212, 6-(4-(2-(dimethylamino)pyridin-4-yl)-5-hydroxy-1H-pyrazol-1-yl)-N-((tetrahydro-2H-pyran-4-yl)methyl)nicotinamide] | 6.21 |
| Cc1cc(-c2cnn(-c3ccc(C(=O)NCC4CCOCC4)cn3)c2O)cc(C)n1 [Example 224, 6-(4-(2,6-dimethylpyridin-4-yl)-5-hydroxy-1H-pyrazol-1-yl)-N-((tetrahydro-2H-pyran-4-yl)methyl)nicotinamide] | 5.83 |
| O=C(NCC1CCOCC1)c1ccc(-n2ncc(-c3ccncc3)c2O)nc1 [Example 226, 6-(5-hydroxy-4-(pyridin-4-yl)-1H-pyrazol-1-yl)-N-((tetrahydro-2H-pyran-4-yl)methyl)nicotinamide] | 6.6 |
| COCCCN(C)C(=O)c1ccc(-n2ncc(-c3ccc(C#N)cc3OC)c2O)nc1 [Example 240, 6-(4-(4-cyano-2-methoxyphenyl)-5-hydroxy-1H-pyrazol-1-yl)-N-(3-methoxypropyl)-N-methylnicotinamide] | 6.63 |
| N#Cc1ccc(-c2cnn(-c3ccc(C(=O)NCC4CCC4)cn3)c2O)cc1 [Example 256, 6-(4-(4-cyanophenyl)-5-hydroxy-1H-pyrazol-1-yl)-N-(cyclobutylmethyl)nicotinamide] | 6.72 |
| CC1CC(CNC(=O)c2ccc(-n3ncc(-c4ccc(C#N)cc4)c3O)nc2)C1 (centres unmarked) [Example 257, 6-(4-(4-cyanophenyl)-5-hydroxy-1H-pyrazol-1-yl)-N-((3-methylcyclobutyl)methyl)nicotinamide] | 7.24 |
| CNCCCNC(=O)c1ccc(-n2ncc(-c3ccc(C#N)cc3)c2O)nc1 [Example 272, 6-(4-(4-cyanophenyl)-5-hydroxy-1H-pyrazol-1-yl)-N-(3-(methylamino)propyl)nicotinamide hydrochloride] | 7.03 |
| Cc1cc(C#N)ccc1-c1cnn(-c2ccc(C(=O)N3CCN4CCCC4C3)cn2)c1O (centres unmarked) [Example 407, 4-(5-hydroxy-1-(5-(octahydropyrrolo[1,2-a]pyrazine-2-carbonyl)pyridin-2-yl)-1H-pyrazol-4-yl)-3-methylbenzonitrile] | 8.23 |
| CCCN1CCCN(C(=O)c2ccc(-n3ncc(-c4ccc(C#N)cc4C)c3O)nc2)CC1 [Example 424, 4-(5-hydroxy-1-(5-(4-propyl-1,4-diazepane-1-carbonyl)pyridin-2-yl)-1H-pyrazol-4-yl)-3-methylbenzonitrile] | 7.70 |

The compounds below were run on HIF1a protein in H9c2 rat cardiomyocytes (assay: Cell-based HIF-alpha stabilization assay (inhibition of PHD in cells)). Settings: 24 hrs compound incubation, HIF1a protein by ELISA.
Description: Example B Inhibition of PHD in Cells
PHD Inhibition is Determined Using (Secondary Assay)
Cell-Based HIF-Alpha Stabilization Assay:
H9c2 rat cardiomyocytes (ATCC) were seeded in 96-well tissue culture microplates and cultured for 24 hours prior to addition of compounds (11 point range of serial dilutions) or dimethylsulfoxide vehicle. After 24 hrs of compound incubation, whole cell extracts were prepared by lysing cells in cell extraction buffer containing protease and phosphatase inhibitors (Meso-Scale Discovery). HIF1a protein content was assessed by ELISA (Meso-Scale Discovery) and expressed as a % relative to the maximum response obtained from the positive control, desferrioxamine (Sigma-Aldrich). Compound EC50s were obtained by curve-fitting using XLfit4 MicroSoft Excel curve-fitting software. Compound EC50pos were obtained using XLfit4 to calculate the compound concentration that results in 50% of the desferrioxamine maximum response.

| SMILES | Inhibition of PHD in cells (pEC50) |
| --- | --- |
| COc1cc(-c2cnn(-c3ccc(C(=O)NCCCn4ccnc4)cn3)c2O)ccn1 [Example 21, N-(3-(1H-imidazol-1-yl)propyl)-6-(5-hydroxy-4-(2-methoxypyridin-4-yl)-1H-pyrazol-1-yl)nicotinamide] | 6.46 |

Same assay, conditions: Rattus norvegicus, H9c2, 24 h, 24 hrs compound incubation, HIF1a protein by ELISA, read-out: Inhibition of PHD in cells (pEC50) (converted)

| SMILES | EC50 [µM] |
| --- | --- |
| COc1cc(-c2cnn(-c3ccc(C(=O)NCCC4CCOCC4)cn3)c2O)ccn1 [Example 11, 6-(5-hydroxy-4-(2-methoxypyridin-4-yl)-1H-pyrazol-1-yl)-N-(2-(tetrahydro-2H-pyran-4-yl)ethyl)nicotinamide] | 0.537 |
| COc1cc(-c2cnn(-c3ccc(C(=O)NCCCN4CCCCC4)cn3)c2O)ccn1 [Example 18, 6-(5-hydroxy-4-(2-methoxypyridin-4-yl)-1H-pyrazol-1-yl)-N-(3-(piperidin-1-yl)propyl)nicotinamide] | 0.933 |
| COc1cc(-c2cnn(-c3ccc(C(=O)NCCCN4CCCC4)cn3)c2O)ccn1 [Example 19, 6-(5-hydroxy-4-(2-methoxypyridin-4-yl)-1H-pyrazol-1-yl)-N-(3-(pyrrolidin-1-yl)propyl)nicotinamide] | 1.38 |
| COc1cc(-c2cnn(-c3ccc(C(=O)NCCC4CCCN4C)cn3)c2O)ccn1 (centres unmarked) [Example 23, 6-(5-hydroxy-4-(2-methoxypyridin-4-yl)-1H-pyrazol-1-yl)-N-(2-(1-methylpyrrolidin-2-yl)ethyl)nicotinamide] | 1 |
| COc1cc(-c2cnn(-c3ccc(C(=O)NCCCN4CCCCC4C)cn3)c2O)ccn1 (centres unmarked) [Example 29, 6-(5-hydroxy-4-(2-methoxypyridin-4-yl)-1H-pyrazol-1-yl)-N-(3-(2-methylpiperidin-1-yl)propyl)nicotinamide] | 0.871 |
| N#Cc1ccc(-c2cnn(-c3ccc(C(=O)NC4CCc5ccc(Cl)cc54)cn3)c2O)cc1 (centres unmarked) [Example 79, N-(6-chloro-2,3-dihydro-1H-inden-1-yl)-6-(4-(4-cyanophenyl)-5-hydroxy-1H-pyrazol-1-yl)nicotinamide] | 1.32 |
| CN1CCC(NC(=O)c2ccc(-n3ncc(-c4ccc(C#N)cc4)c3O)nc2)CC1=O (centres unmarked) [Example 82, 6-(4-(4-cyanophenyl)-5-hydroxy-1H-pyrazol-1-yl)-N-(1-methyl-2-oxopiperidin-4-yl)nicotinamide] | 4.79 |
| COc1ccc2c(c1)C(NC(=O)c1ccc(-n3ncc(-c4ccc(C#N)cc4)c3O)nc1)CC2 (centres unmarked) [Example 83, 6-(4-(4-cyanophenyl)-5-hydroxy-1H-pyrazol-1-yl)-N-(6-methoxy-2,3-dihydro-1H-inden-1-yl)nicotinamide] | 1.78 |
